Where two headings read alike, the source gives them in different places.
Columns and labels:
[1] = cited from earlier work
[2] = cited from earlier work; remark: listed apart in the source
[3] = test system: black cutworm larvae; experiment: Example 4: stand reduction of corn by black cutworm in three soil types; assay type: in vivo; details: seed treatment 250 gm AI/100 kg of seed
Method: A lambda-cyhalothrin seed treatment formulation was prepared from WARRIOR T insecticide and corn seed was prepared and treated as described in Example 1, except that the treatment level was 250 gm active ingredient/100 kg seed. Treated and untreated seeds were planted and cultivated as described as described in Example 1. FORCE 3GR was applied and incorporated into a 5 inch band on the soil surface at the time of planting. The untreated seed—with and without tefluthrin banding—and the treated seed were planted in three different soil types. […] The tubs were overhead irrigated until the plants were infested with black cutworm larvae.
(§1) The corn plants were infested at 12 DAP, as described in Example 1. Plants were rated at 10 days after infestation (DAI) for the number of cut plants. The percent stand reduction due to plant cutting was calculated by dividing the number of cut plants into the number of plants present at infestation.

[4] = test system: black cutworm larvae; experiment: Example 2: stand reduction of corn by black cutworm, tub test; assay type: in vivo
Method: A lambda-cyhalothrin seed treatment formulation was prepared from the WARRIOR T insecticide and corn seed was prepared and treated as described in Example 1, except that the treatment levels were 88, 185 and 381 gm active ingredient/100 kg seed. Treated and untreated seeds were planted and cultivated as described as described in Example 1. Again, FORCE 3GR was applied either in-furrow or incorporated into a 5 inch band on the soil surface at the time of planting. The tubs were overhead irrigated until the plants were infested with black cutworm larvae.
as §1

Q: With `CC1(C)C(C(=O)OC(C#N)c2cccc(Oc3ccccc3)c2)C1(C)C` (stereo not drawn) [Fenpropathrin, alpha-cyano-3-phenoxybenzyl 2,2,3,3,-tetramethyl cyclopropoanecarboxylate] as the compound, how does the Water solubility ([1]; 25° C.) read?
A: The Water solubility was 14.1 μg/l (25° C.).

Q: And the Vapor pressure ([2]; temperature not given)?
A: The Vapor pressure was 0.73 mPa.

Q: Which Water solubility ([1]; 20° C.) does the source give for `CC1(C)C(/C=C(\Cl)C(F)(F)F)C1C(=O)OC(C#N)c1cccc(Oc2ccccc2)c1` (racemic) [Cyhalothrin, [1α, 3α(Z)]-(±)-cyano-(3-phenoxyphenyl)methyl 3-(2-chloro-3,3,3-trifluoro-1-propenyl)-2,2-cimethylcyclopropanecarboxylate] here?
A: The Water solubility was 0.004 ppb (20° C.).

Q: And the Vapor pressure ([2]; temperature not given)?
A: Its Vapor pressure is 0.001 mPa.

Q: Which results are given for `CC(C)=CC1C(C(=O)OC(C#N)c2cccc(Oc3ccccc3)c2)C1(C)C` (stereo not shown) [Cyphenothrin]?
A: Water solubility ([1]; 25° C.): <10 μg/l (25° C.); Vapor pressure ([2]; 20° C.): 0.12 mPa

Q: For `CC1(C)[C@H](C(=O)O[C@H](C#N)c2cccc(Oc3ccccc3)c2)[C@@H]1/C=C(\Cl)C(F)(F)F` [Lambda cyhalothrin, [1 alpha (s), 3 alpha(z)]-cyano(3-phenoxyphenyl)methyl-3-(2-chloro-3,3,3-trifluoro-1-propenyl)-2,2-dimethylcyclopropane carboxylate], which “STAND REDUCTION (%, 10 days after infestation)” value ([3]; SOIL TYPE I) is on record?
A: The value was 80.1%.

Q: And the “STAND REDUCTION (%, 10 days after infestation)” value ([3]; SOIL TYPE II)?
A: Its value is 39.8%.

Q: What about the “STAND REDUCTION (%, 10 days after infestation)” value ([3]; SOIL TYPE III) of the same compound?
A: Its value is 72.4%.

Q: And the “STAND REDUCTION (%, 10 days after infestation)” value ([4]; seed treatment 88 gm AI/100 kg of seed)?
A: Its value is 19.4%.

Q: What about the “STAND REDUCTION (%, 10 days after infestation)” value ([4]; seed treatment 381 gm AI/100 kg of seed) of the same compound?
A: Its value is “total protection”.

Q: And the Vapor pressure ([2]; temperature not given)?
A: The Vapor pressure was 2 E-4 mPa.

Q: For `C#CCN1CC(=O)N(COC(=O)[C@@H]2C(C=C(C)C)C2(C)C)C1=O` (mixture of isomers) [Imiprothrin], which Vapor pressure ([2]; 25° C.) is on record?
A: The Vapor pressure was 1.8 E-3 mPa.

Q: With `CC1(C)[C@H](C(=O)O[C@H](C#N)c2cccc(Oc3ccccc3)c2)[C@@H]1C(Br)C(Br)(Br)Br` (stereo partly shown) [Tralomethrin] as the compound, how does the Vapor pressure ([2]; 25° C.) read?
A: Its Vapor pressure is 4.6 E-6 mPa.

Q: For `CC(C)[C@@H](Nc1ccc(C(F)(F)F)cc1Cl)C(=O)OC(C#N)c1cccc(Oc2ccccc2)c1` (mixture of isomers) [Tau-fluvalinate, (RS)-alpha-cyano-3-phenoxybenzyl(R)-2-[2-chloro-4-(trifluoromethyl)anilino]-3-methylbutanoate], which Water solubility ([1]; 20° C.) is on record?
A: The Water solubility was 1.03 ppb (20° C.).

Q: And the Vapor pressure ([2]; temperature not given)?
A: The Vapor pressure was 9 E-8 mPa.

Q: For `CC1(C)[C@H](C=C(Cl)Cl)[C@H]1C(=O)OCc1c(F)c(F)cc(F)c1F` [Transfluthrin], which Vapor pressure ([2]; temperature not given) is on record?
A: Its Vapor pressure is 0.4 mPa.

Q: For `CC1(C)[C@H](C=C(Cl)Cl)[C@H]1C(=O)O[C@H](C#N)c1cccc(Oc2ccccc2)c1` [Theta cypermethrin], which Vapor pressure ([2]; temperature not given) is on record?
A: The Vapor pressure was 1.8 E-4 mPa.

Q: Which Vapor pressure ([2]; temperature not given) does the source give for `CC1(C)[C@H](C=C(Cl)Cl)[C@H]1C(=O)O[C@@H](C#N)c1cccc(Oc2ccccc2)c1` [Beta-cypermethrin] here?
A: The Vapor pressure was 1.8 E-4 mPa.

Q: Which Vapor pressure ([2]; 20° C.) does the source give for `CC(C)C(C(=O)OC(C#N)c1cccc(Oc2ccc(Br)cc2)c1)c1ccc(OC(F)F)cc1` (stereo not shown) [ZXI8901] here?
A: The Vapor pressure was 1.6 E-4 mPa.

Q: Which Water solubility ([1]; temperature not given) does the source give for `CC(C)=C[C@@H]1[C@@H](C(=O)OCc2coc(Cc3ccccc3)c2)C1(C)C` [Bioresmethrin, (1R-trans)-[5-(phenylmethyl)-3-furanyl]methyl 2,2-dimethyl-3-(2-methyl-1-propenyl)cyclopropanecarboxylate] here?
A: The Water solubility was <0.3 mg/L.

Q: What about the Vapor pressure ([2]; (Tech.)) of the same compound?
A: Its Vapor pressure is 18.6 mPa.

Q: And the Vapor pressure ([2]; (d-resmethrin))?
A: The Vapor pressure was 0.45 mPa.

Q: What does the source list for `CC(C)C(C(=O)OC(C#N)c1cccc(Oc2ccccc2)c1)c1ccc(Cl)cc1` (stereo not drawn) [Fenvalerate, (s)-cyano(3-phenoxyphenyl)methyl 4-chloro alpha (1-methylethyl)benzeneacetate]?
A: Water solubility ([1]; temperature not given): <0.01 mg/L; Vapor pressure ([2]; 20° C.): 1.92 E-2 mPa

Q: Which results are given for `C=CCC1=C(C)C(OC(=O)[C@@H]2[C@@H](C=C(C)C)C2(C)C)CC1=O` (stereo partly shown) [Bioallethrin]?
A: Water solubility ([1]; temperature not given): 4.6 mg/L; Vapor pressure ([2]; 25° C.): 43.9 mPa

Q: For `CC1(C)C(C=C(Cl)Cl)C1C(=O)OC(C#N)c1ccc(F)c(Oc2ccccc2)c1` (stereo not shown) [Cyfluthrin, cyano(4-fluoro-3-phenoxyphenyl)methyl 3-(2,2-dichloroethenyl)-2,2-dimethyl-cyclopropanedarboxylate], which Water solubility ([1]; 25° C.) is on record?
A: The Water solubility was 2-4.3 μg/l (25° C.).

Q: Which Vapor pressure ([2]; 30° C.) does the source give for `CC(C)=CC1C(C(=O)OCN2C(=O)C3=C(CCCC3)C2=O)C1(C)C` (stereo not drawn) [Tetramethrin, 3,4,5,6-tetra hydro-phthalimidomethyl-(IRS)-cis-trans-chrysanthemate] here?
A: Its Vapor pressure is 0.944 mPa.

Q: Which Vapor pressure ([2]; temperature not given) does the source give for `CC1(C)[C@H](C(=O)O[C@H](C#N)c2cccc(Oc3ccccc3)c2)[C@@H]1C=C(Br)Br` [Deltamethrin, (s)-alpha-cyano-3-phenoxybenzyl (IR,3R)-3-(2,2-dibromovinyl)-2,2-dimethyl cyclopropanecarboxylate] here?
A: Its Vapor pressure is 1.24 E-5 mPa.

Q: With `CC(C)[C@H](C(=O)O[C@H](C#N)c1cccc(Oc2ccccc2)c1)c1ccc(Cl)cc1` [Esfenvalerate, (S)-cyano (3-phenoxyphenyl) methyl (S)-4-chloro-alpha-(1-methylethyl)benzeneacetate] as the compound, how does the Water solubility ([1]; temperature not given) read?
A: The Water solubility was 0.002 mg/L.

Q: And the Vapor pressure ([2]; temperature not given)?
A: The Vapor pressure was 2 E-4 mPa.

Q: Which Vapor pressure ([2]; temperature not given) does the source give for `CC1(C)C(C=C(Cl)Cl)C1C(=O)OC(C#N)c1cccc(Oc2ccccc2)c1` (racemic) [Zeta-cypermethrin, S-cyano (3-phenoxyphenyl)methyl (±) cis/trans 3-(2,2-dichloroethenyl) 2,2 dimethylcyclopropane carboxylate] here?
A: The Vapor pressure was 2.5 E-4 mPa.

Q: With `C#CC(OC(=O)C1C(C=C(C)C)C1(C)C)/C(C)=C/CC` (stereo not shown) [Empenthrin] as the compound, how does the Vapor pressure ([2]; 23.6° C.) read?
A: The Vapor pressure was 14 mPa.

Q: For `CC(C)[C@H](C(=O)OC(C#N)c1cccc(Oc2ccccc2)c1)c1ccc(OC(F)F)cc1` (mixture of isomers) [Flucythrinate, (±)-cyano (3-phenoxyphenyl)methyl (±)-4-(difluoromethoxy)-alpha-(1-methylethyl) benzeneacetate], which Water solubility ([1]; 21° C.) is on record?
A: Its Water solubility is 0.5 mg/l (21° C.).

Q: What about the Vapor pressure ([2]; 25° C.) of the same compound?
A: Its Vapor pressure is 0.0012 mPa.

Q: With `C#CCC1=C(C)C(OC(=O)C2C(C=C(C)C)C2(C)C)CC1=O` (stereo not shown) [Prallethrin] as the compound, how does the Vapor pressure ([2]; 23.1° C.) read?
A: The Vapor pressure was <0.013 mPa.

Q: With `CC1(C)C(C=C(Cl)Cl)C1C(=O)OC(C#N)c1cccc(Oc2ccccc2)c1` (stereo not drawn) [Alpha cypermethrin, (IR cis) S and (IS cis) R enantiomer isomer pair of alpha-cyano-3-phenoxybenzyl-3-(2,2dichlorovinyl)-2,2-dimethylcyclopropane carboxylate] as the compound, how does the Vapor pressure ([2]; temperature not given) read?
A: Its Vapor pressure is 2.3 E-2 mPa.

Q: What does the source list for `CC1(C)C(C=C(Cl)Cl)C1C(=O)OC(C#N)c1ccc(F)c(Oc2ccccc2)c1` (stereo not drawn) [Beta cyfluthrin]?
A: Water solubility ([1]; 25° C.): 1.2-2.1 μg/l (25° C.); Vapor pressure ([2]; no unit, temperature not given): 1.4 to 8.5 E-5

Q: For `CC1(C)C(C=C(Cl)Cl)C1C(=O)OCc1cccc(Oc2ccccc2)c1` (stereo not drawn) [Permethrin, (3-phenoxyphenyl)-methyl(+)cis-trans-3-(2,2-dichoroethenyl)-2,2-dimethylcyclopropanecarboxylate], which Vapor pressure ([2]; temperature not given) is on record?
A: The Vapor pressure was 0.07 mPa.

Q: For `CC1(C)C(C=C(Cl)Cl)C1C(=O)OC(C#N)c1cccc(Oc2ccccc2)c1` (racemic) [Cypermethrin, (±) alpha-cyano-(3-phenoxyphenyl)methyl(+)-cis,trans-3-(2,2-dichloroethenyl)-2,2-dimethyl-cyclopropane carboxylate], which Vapor pressure ([2]; temperature not given) is on record?
A: Its Vapor pressure is 2.3 E-4 mPa.

Q: Which Water solubility ([1]; 25° C.) does the source give for `CC(C)=CC1C(C(=O)OCc2cccc(Oc3ccccc3)c2)C1(C)C` (stereo not drawn) [Phenothrin, 3-phenoxybenzyl-d,l-cistrans 2,2-dimethyl-3-(2-methylpropenyl)cyclopropane carboxylate] here?
A: Its Water solubility is <9.7 μg/l (25° C.).

Q: What about the Vapor pressure ([2]; 21.4° C.) of the same compound?
A: The Vapor pressure was 1.9 E-2 mPa.

Q: With `C=CCC1=C(C)C(OC(=O)C2C(C=C(C)C)C2(C)C)CC1=O` [Allethrin, (RS)-3-allyl-2-methyl-4-oxcyclopent-2-enyl-(1A,3R; 1R,3S)-2,2-dimethyl-3-(2-methylprop-1-enyl)cyclopropane carboxylate] as the compound, how does the Water solubility ([1]; in words) read?
A: Its Water solubility is “practically insol”.

Q: And the Vapor pressure ([2]; 21° C.)?
A: Its Vapor pressure is 0.16 mPa.

Q: Which results are given for `CCOc1ccc(C2(C(=O)OC(C#N)c3cccc(Oc4ccccc4)c3)CC2(Cl)Cl)cc1` (stereo not shown) [Cycloprothrin, cyano-(3-phenoxyphenyl)methyl 2,2-dichloro-1-(4-ethoxyphenyl)cyclopropane carboxylate]?
A: Water solubility ([1]; 25° C.): 0.091 mg/l (25° C.); Vapor pressure ([2]; 20° C.): 2.13 E-3 mPa

Q: Which Vapor pressure ([2]; temperature not given) does the source give for `CC1(C)[C@H](C(=O)O[C@H](C#N)c2cccc(Oc3ccccc3)c2)[C@@H]1/C=C\C(=O)OC(C(F)(F)F)C(F)(F)F` [Acrinathrin, (S)-alpha-cyano-3-phenoxybenzyl(Z)-(IR-cis)-2,2-dimethyl-3-[2-(2,2,2-trifluoro-trifluoromethyl-ethoxycarbonyl)vinyl]cyclopropane carboxylate] here?
A: The Vapor pressure was 4.4 E-5 mPa.

— patent US6713077B1, “Control of shoot/foliar feeding pests with pesticide seed treatments” (Monsanto Technology, LLC, priority 1999, dated 2004)
